Reference: patent publication US20160039936A1, “FIBROBLAST GROWTH FACTOR RECEPTOR INHIBITION FOR THE TREATMENT OF DISEASE” (UNIVERSITY OF MIAMI, priority 2011, published 2016)

B1: FGF23: recombinant mouse FGF23, 6His-tagged Tyr25-Val251 (Arg179Gln) (R&D Systems) (protein)
chain: YPDTSPLLGSNWGSLTHLYTATARTSYHLQIHRDGHVDGTPHQTIYSALMITSEDAGSVVITGAMTRRFLCMDLHGNIFGSLHFSPENCKFRQWTLENGYDVYLSQKHHYLVSLGRAKRIFQPGTNPPPFSQFLARRNEVPLLHFYTVRPRRHTQSAEDPPERDPLNVLKPRPRATPVPVSCSRELPSAEEGGPAASDPLGVLRRGRGDARGGAGGADRCRPFPRFV
modifications: left off: small tags and cut ends

Legend:
[1] = test system: 5/6 nephrectomy rat model of CKD; assay: 5/6 nephrectomy rat model of CKD; format: in vivo; conditions: PD173074 1 mg/kg/day i.p. 14 days
From the text: FGFR activity is required for the development of LVH in a rat model of CKD Since the cardiac effects of FGF23 are mediated by FGFR activation and could be blocked in vitro by the FGFR inhibitor PD173074, we tested the hypothesis that PD173074 could also attenuate LVH in the 5/6 nephrectomy rat model of CKD, which is known to develop increased FGF23 levels, severe hypertension, and LVH. We performed 5/6 nephrectomy in male Sprague Dawley rats using standard surgical techniques, and administered by intra-peritoneal injection either 1 mg/kg body weight/day of PD173074 dissolved in PBS (n=6) or vehicle alone (n=6) beginning one hour after surgery and continued daily for 14 days (FIG. 7). As a negative control, 6 rats underwent sham nephrectomy. At day 14 after surgery, we measured blood pressure, performed echocardiograms, collected blood for laboratory testing, sacrificed the animals and examined their hearts. […] Compared with vehicle, PD 173074 treatment led to decreased left ventricular mass, reduced ratio of heart weight to total body weight, decreased left ventricular wall thickness and relative wall thickness, decreased cross-sectional surface area of individual cardiac myocytes, and increased left ventricular end diastolic volume and ejection fraction (FIG. 7A-C). […]
Kidney disease was induced in Sprague Dawley rats using the 5/6 nephrectomy method (Di Marco et al., 2014). Rats were randomized to 3 groups of 6 animals each: sham nephrectomy, or 5/6 nephrectomy plus intra-peritoneal injections of vehicle (PBS) or anti-FGFR4 blocking antibody (human monoclonal, U3-11; U3Pharma) at 25 mg/kg/day every 3 days beginning one hour after surgery. High-resolution echocardiography (15 MHz) was performed at 14 days after surgery to assess LV mass, wall and chamber dimensions, and systolic and diastolic function using an HDI 5000 Ultrasound system (Philips, Best, The Netherlands). M-mode, 2D and 3D recordings were obtained under general anesthesia delivered through a nose mask while heart rate and body temperature were maintained. Blood pressure was measured in conscious rats using a computerized rat-tail cuff technique (CODA, Kent Scientific Corporation). On day 14, animals were sacrificed and the hearts were isolated and prepared for histological and serological analyses.
Short-axis heart sections were stained with hematoxylin and eosin (VWR) and used to quantify myocardial thickness by measuring the distance from the inner to the outer myocardial edges at the mid-chamber zone. Mean left ventricular free wall thickness was calculated from seven measurements of wall thickness taken at 0, 30, 60, 90, 120, 150 and 180 degrees along the hemi-circle of the short axis of the free wall. Images were taken on a Nikon SMZ 1500 microscope using 0.75× magnification.
We measured cross-sectional area of individual cardiac myocytes in paraffin-embedded short-axis sections of mouse and rat hearts. Briefly, 7 μm thick sections were deparaffinized according to our established protocols (Faul et al., 2011). To visualize cellular borders, fixed tissue was incubated with wheat germ agglutinin (WGA) conjugated to Alexa Fluor555 (Invitrogen) at 1 mg/ml in PBS containing 10 mM sodium azide. Immunofluorescence images were taken on a Leica TCS-SP5 confocal microscope with a 63× oil objective. Leica AF6000 fluorescence software was used to quantify cross-sectional area of 25 cells per field at four fields along the mid-chamber free wall based on WGA-positive staining.
Short-axis cardiac sections from mice and rats were stained with Picrosirius Red (Sigma-Aldrich) and used to quantify myocardial fibrosis. Sections were deparaffinized, counterstained with hematoxylin (VWR) and incubated in Picrosirius Red solution for 60 minutes. After washing in acidified water, sections were dehydrated in ascending ethanol series and mounted in non-aqueous mounting media. […]

FGFR4 = target: T1, FGFR4 (Rattus norvegicus, UniProt Q498D6); assay: Binding of PLCγ to FGFR4 in NRVM (immunoprecipitation); format: cell-based; conditions: 30 minutes, vs PBS or FGF2
T1 construct: endogenous in cells; host or cells: isolated neonatal rat ventricular myocytes (NRVM)
Description: HEK293 cells in 10 cm-dishes were treated with growth factors for 30 minutes, cells were scraped using 1 ml IP buffer (50 mM Tris-HCl pH7.5, 150 mM NaCl, 5 mM MgCl2, 2 mM EGTA, 1% Triton X-100, 5% Glycerol, protease and phosphatase inhibitors), and protein lysates were prepared as described above. V5-tagged proteins were immunoprecipitated using 25 μl of anti-V5 agarose beads (Sigma-Aldrich). After 5 washes in IP buffer, proteins were eluted in 100 μl of sample buffer and analyzed by SDS-PAGE and immunoblotting. For endogenous immunoprecipitation studies from NRVM, cells in 10cm-dishes were treated with growth factors for 30 minutes. Some cells were pre-treated with FGFR4 blocking antibody at 10 μg/ml for 1 hour (human monoclonal, U3-11; U3Pharma). […] We added 50 μl of a 1:1 mix of Protein A on sepharose beads and Protein G on agarose beads that were previously equilibrated in RIPA buffer, followed by incubation at 4° C. under rotation for 2 hours, protein elution in sample buffer, and SDS-PAGE and Western blot analyses.

HEK293 cells = assay: FGF-FGFR-dependent signaling in HEK293 cells (Western blot, immunoprecipitation); format: cell-based; conditions: HEK293 expressing wild-type FGFR4, within 6 hours

T1 sequence (Q498D6 17-800): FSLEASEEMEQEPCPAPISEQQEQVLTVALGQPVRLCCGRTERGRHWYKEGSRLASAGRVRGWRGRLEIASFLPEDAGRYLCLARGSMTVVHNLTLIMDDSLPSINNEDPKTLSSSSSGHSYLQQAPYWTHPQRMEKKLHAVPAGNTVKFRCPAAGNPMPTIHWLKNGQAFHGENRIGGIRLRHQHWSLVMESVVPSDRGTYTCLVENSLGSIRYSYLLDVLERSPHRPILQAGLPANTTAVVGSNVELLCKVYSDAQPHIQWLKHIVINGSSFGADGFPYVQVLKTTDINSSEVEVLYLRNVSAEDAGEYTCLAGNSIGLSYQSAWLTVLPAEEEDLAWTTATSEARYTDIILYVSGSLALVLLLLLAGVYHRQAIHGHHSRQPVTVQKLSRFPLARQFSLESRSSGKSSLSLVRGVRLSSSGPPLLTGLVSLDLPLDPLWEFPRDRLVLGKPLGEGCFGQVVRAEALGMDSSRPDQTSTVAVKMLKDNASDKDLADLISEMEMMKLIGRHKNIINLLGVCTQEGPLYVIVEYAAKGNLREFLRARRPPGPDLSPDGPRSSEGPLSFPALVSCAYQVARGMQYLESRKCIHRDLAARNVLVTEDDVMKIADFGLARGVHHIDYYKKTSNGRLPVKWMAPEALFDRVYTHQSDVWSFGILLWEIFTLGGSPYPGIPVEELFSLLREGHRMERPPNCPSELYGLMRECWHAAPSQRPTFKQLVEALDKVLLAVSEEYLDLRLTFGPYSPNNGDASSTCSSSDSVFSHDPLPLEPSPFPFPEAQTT

Row | Molecule | 5/6 nephrectomy-induced increased cardiac β-MHC and ANP and decreased MCAD mRNA [1] | blood pressure vs vehicle [1] | renal function and serum FGF23 levels vs vehicle [1] | LVH ([1]; vs vehicle) | cross-sectional surface area of individual cardiac myocytes ([1]; vs vehicle) | left ventricular end diastolic volume and ejection fraction ([1]; vs vehicle) | left ventricular mass ([1]; vs vehicle) | left ventricular wall thickness and relative wall thickness ([1]; vs vehicle) | ratio of heart weight to total body weight ([1]; vs vehicle) | hepatic expression of p-ERK protein levels ([1]; vs sham and 5/6 nephrectomized rats) | levels of co-purified FGFR4 in anti-PLCγ eluates (FGFR4) | RCAN1-4 levels (HEK293 cells)
1 | CCN(CC)CCCCNc1ncc2cc(-c3cc(OC)cc(OC)c3)c(NC(=O)NC(C)(C)C)nc2n1 [PD173074] | not observed | no difference was detected | no differences | significantly attenuated | decreased | increased | decreased | decreased | reduced | decreased |  | 
2 | B1 |  |  |  |  |  |  |  |  |  |  | elevated | increases
